Assay results reported in ChEMBL document CHEMBL1122680, “A photoaffinity reagent to label the opiate receptors of guinea pig ileum and mouse vas deferens” (J Med Chem, 1984).

What was measured:
Type in all cases: functional
[1] = species on record: Rattus norvegicus; experiment: Inhibitory effect on the binding of 2 nM [3H]naloxone to rat brain membrane
[2] = species on record: Mus musculus; experiment: Inhibitory effect on electrically induced contraction of Mouse vas deferens (MVD)
[3] = species on record: Cavia porcellus; experiment: Inhibitory effect on electrically induced contraction of guinea pig ileum (GPI)
[4] = Relative potency calculated from the ratio of IC50 of [Leu]-enkephalin to that of the compound

| SMILES | IC50 [1] | IC50 [2] | IC50 [3] | Potency [4] |
| --- | --- | --- | --- | --- |
| CC(C)C[C@H](NC(=O)[C@H](Cc1ccccc1)NC(=O)CNC(=O)CNC(=O)[C@@H](N)Cc1ccc(O)cc1)C(N)=O [[LEU5]ENKEPHALIN] | 118 nM | 17 nM | 120 nM | 1 |
| C=CCN1CC[C@]23c4c5ccc(O)c4O[C@H]2C(=O)CC[C@@]3(O)[C@H]1C5 [NALOXONE] | 6.39 nM |  |  | 18.5 |
| CC(C)C[C@H](NC(=O)[C@H](Cc1ccccc1)NC(=O)CNC(=O)[C@H](C)NC(=O)[C@@H](N)Cc1ccc(O)cc1)C(=O)NCCNc1ccc(N=[N+]=[N-])cc1[N+](=O)[O-] | 2.52 nM | 2.59 nM | 4.35 nM | 46.8 |
| CC(C)C[C@H](NC(=O)[C@H](Cc1ccccc1)NC(=O)CNC(=O)[C@@H](C)NC(=O)[C@@H](N)Cc1ccc(O)cc1)C(N)=O | 30 nM | 2.88 nM | 5.23 nM | 3.9 |
